Where “and” joins values, the source holds several entries; their conditions need not be identical. Identical values can stand only once. Entries after “also recorded” stand apart in the source; their conditions may differ. Like-named read-outs stand apart in the source and are kept apart here.
Experiments:
[1] = biological target: T. adhaerens GluE1αA receptor (wildtype) (Trichoplax adhaerens, UniProt B3SAW0); assay: whole-cell patch clamp, agonist-evoked currents in CHO-K1 cells; type: cell-based; details: for normalized peak inward current, Avg / normalized peak inward current, single recording: wild type; for sensitivity to agonist: 1 mM
[2] = tested on: GluE1αA m2 variant (S653G, I655T); type: cell-based, Trichoplax adhaerens; details: for normalized peak inward current, Avg / normalized peak inward current, single recording / normalized current (dose response), Avg / normalized current (dose response), single recording: m2
Excerpt: (§1) As noted, a model has been put forward that defines iGluR ligand specificity based on a set of key amino acids in the LBD of iGluRs[11]. […] To the best of our knowledge, whether these few positions are indeed solely responsible for ligand specificity, and moreover, can be altered to switch specificity for natural ligands, has not been experimentally tested. […] We also created a triple mutant, with an additional phenylalanine to tyrosine mutation at position 732 (F732Y; m3 variant), to make the T. adhaerens epsilon receptor resemble GluN2A and GluA2 receptors from human, reasoning that this mutation might enhance glutamate sensitivity. We also generated a single F732Y mutant (m1 variant), to assess the contribution of this amino acid to ligand specificity in isolation.
(§2) The cDNA of the T. adhaerens GluE1αA receptor was cloned into the mammalian expression vector pIRES2-EGFP, using a 5’ nested primer that inserted a mammalian consensus Kozak sequence of […] (Supplementary Table 5). Several mutants/variants of this receptor where also prepared via site directed mutagenesis using standard procedures and primers listed in Supplementary Table 5. For electrophysiological comparisons, we commissioned GenScript (USA) to synthesize the cDNA of the human GluA2 […] receptor (NCBI accession number NP_001077088.2), which was cloned into the pIRES2-EGFP vector with a Kozak sequence flanking the start codon and restriction enzymes SalI and BamHI at the 5’ and 3’ ends of the cDNA, respectively. Receptor cDNAs in the various pIRES2 constructs were transfected into Chinese Hamster Ovary-K1 (CHO-K1; Sigma) cells cultured in Dulbecco’s Modified Eagle Medium Nutrient Mixture F-12 (DMEM/F12) supplemented with 10% Fetal Bovine Serum (FBS) and 1% penicillin-streptomycin at 37°C. Transfections were done with 2 μg of plasmid vector using the transfecting reagent PolyJet^TM (SignaGen Laboratories, USA) according to the manufacturer’s instructions and plated onto glass coverslips in 35 mm dishes the next day. Transfected cells were incubated at 28°C for 2 to 4 days, then coverslips were transferred to a new 60 mm dish with 5 mL of external recording solution. […] Agonists and pharmacological compounds used in this study were dissolved in corresponding external solutions. […] Patch pipettes were pulled using a P-1000 micropipette puller (Sutter, USA), from thick-walled borosilicate tubing (1.5 and 0.86 outer and inner diameter, respectively), to a resistance of between 1 and 6 megaohms.

[3] = tested on: GluE1αA m3 variant (S653G, I655T, F732Y); type: cell-based, Trichoplax adhaerens; details: for normalized peak inward current, Avg / normalized peak inward current, single recording / normalized current (dose response), Avg / normalized current (dose response), single recording: m3
Excerpt: as §1, §2

[4] = tested on: GluE1αA m1 variant (F732Y); type: cell-based, Trichoplax adhaerens; details: m1; ligand 10 mM; normalized to glycine
Excerpt: as §1, §2

[5] = ligand tested on its own at 10 mM
[6] = ligand 10 mM, normalized to glutamate
[7] = ligand 10 mM, normalized to glycine
[8] = tested as a single mix each at 3 mM

T. adhaerens GluE1αA receptor (wildtype), sequence (B3SAW0 entry or part of it): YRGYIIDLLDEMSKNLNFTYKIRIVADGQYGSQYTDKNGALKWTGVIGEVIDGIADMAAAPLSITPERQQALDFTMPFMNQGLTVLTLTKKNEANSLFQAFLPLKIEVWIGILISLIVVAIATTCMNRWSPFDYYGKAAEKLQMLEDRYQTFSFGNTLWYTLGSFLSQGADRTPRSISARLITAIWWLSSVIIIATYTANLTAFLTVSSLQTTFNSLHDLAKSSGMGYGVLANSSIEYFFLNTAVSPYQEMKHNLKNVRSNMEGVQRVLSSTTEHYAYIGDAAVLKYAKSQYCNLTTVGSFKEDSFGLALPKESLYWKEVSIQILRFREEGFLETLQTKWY

N=C(N)NCCC[C@H](N)C(=O)O [arginine]
activation of ligand-gated current [1, 5]: no responses

N[C@@H](CC(=O)O)C(=O)O [aspartate]
activation of ligand-gated current [1, 5]: no responses

C[N+](C)(C)CC(=O)O [betaine]
activation of ligand-gated current [1, 5]: no responses

C[C@@H](O)[C@H](N)C(=O)O [threonine]
activation of ligand-gated current [1, 5]: no responses

N[C@@H](CCC(=O)O)C(=O)O [glutamate]
normalized peak inward current, Avg ([2]; agonist 1 mM): 0.76
normalized peak inward current, single recording ([2]; agonist 1 mM, listed as Glu): 0.74 and 0.64 and 0.71 and 0.87 and 0.80
normalized current (dose response), Avg ([2]; glutamate 0.3 mM): 0.0181
normalized current (dose response), Avg ([2]; glutamate 1 mM): 0.22
normalized current (dose response), single recording ([2]; glutamate 1 mM): 0.14 and 0.22 and 0.25 and 0.19 and 0.27
normalized current (dose response), Avg ([2]; glutamate 3 mM): 0.76
normalized current (dose response), single recording ([2]; glutamate 3 mM): 0.66 and 0.88 and 0.67 and 0.63 and 0.98 and 0.72
normalized current (dose response), Avg ([2]; glutamate 10 mM): 0.98
normalized current (dose response), single recording ([2]; glutamate 10 mM): 1.00 and 0.98 and 0.92
normalized peak inward current, Avg [2, 6]: 1.00
normalized peak inward current, single recording [2, 6]: 1.00
sensitivity to agonist ([2]; m2 variant, 1 mM): robust responses
EC50 ([2]; m2 variant, dose response of normalized current): 1810 ± 200 µM
normalized peak inward current, Avg ([3]; agonist 1 mM): 1.00
normalized peak inward current, single recording ([3]; agonist 1 mM, listed as Glu): 1.03 and 1.05 and 1.08 and 0.95 and 0.92 and 0.91
normalized current (dose response), Avg ([3]; glutamate 0.1 mM): 0.02
normalized current (dose response), Avg ([3]; glutamate 0.3 mM): 0.16
normalized current (dose response), single recording ([3]; glutamate 0.3 mM): 0.14 and 0.12 and 0.11 and 0.13 and 0.20 and 0.16 and 0.19
normalized current (dose response), Avg ([3]; glutamate 1 mM): 0.88
normalized current (dose response), single recording ([3]; glutamate 1 mM): 0.97 and 0.78 and 0.74 and 0.89 and 0.95 and 0.87 and 0.86 and 0.96
normalized current (dose response), Avg ([3]; glutamate 3 mM): 0.95
normalized current (dose response), single recording ([3]; glutamate 3 mM): 0.98 and 0.83 and 1.00 and 0.87
normalized peak inward current, Avg [3, 6]: 1.00
normalized peak inward current, single recording [3, 6]: 1.00
EC50 ([3]; m3 variant, dose response of normalized current): 610 ± 60 µM
normalized peak inward current, Avg [4]: 0.02
activation of ligand-gated current [1, 5]: no responses
normalized peak inward current, Avg ([1]; agonist 1 mM): 0.0035
normalized peak inward current, Avg [1, 7]: 0.00871

CC(C)[C@H](N)C(=O)O [valine]
normalized peak inward current, Avg [2, 6]: 0.00917
normalized peak inward current, Avg [3, 6]: 0.0123
normalized peak inward current, Avg [4]: 0.0347
activation of ligand-gated current [1, 5]: weakly
normalized peak inward current, Avg [1, 7]: 0.35
normalized current (dose response), Avg ([1]; wildtype, ligand 0.30 mM): 0.0282
normalized current (dose response), Avg ([1]; wildtype, ligand 1.00 mM): 0.32
normalized current (dose response), Avg ([1]; wildtype, ligand 3.00 mM): 0.83
normalized current (dose response), single recording ([1]; wildtype, ligand 3.00 mM): 0.85 and 0.78 and 0.82 and 0.89 and 0.92 and 0.71 and 0.81 and 0.88
normalized current (dose response), Avg ([1]; wildtype, ligand 10.00 mM): 1.00
normalized current (dose response), single recording ([1]; wildtype, ligand 10.00 mM): 1.00
normalized current (dose response), Avg ([1]; wildtype, ligand […]): 0.56

CC(C)C[C@H](N)C(=O)O [leucine]
activation of ligand-gated current [1, 8]: no responses

CC[C@H](C)[C@H](N)C(=O)O [isoleucine]
activation of ligand-gated current [1, 8]: no responses

N[C@@H](Cc1c[nH]cn1)C(=O)O [histidine]
activation of ligand-gated current [1, 8]: no responses

N[C@@H](Cc1ccccc1)C(=O)O [phenylalanine]
activation of ligand-gated current [1, 8]: no responses

NCCCC[C@H](N)C(=O)O [lysine]
activation of ligand-gated current [1, 8]: no responses

N[C@@H](CO)C(=O)O [L-serine]
normalized peak inward current, Avg [2, 6]: 0.20
normalized peak inward current, single recording [2, 6]: 0.17 and 0.18 and 0.24 and 0.27
normalized peak inward current, Avg [3, 6]: 0.07
normalized peak inward current, Avg [4]: 1.05
normalized peak inward current, single recording [4]: 1.18 and 1.01 and 1.00 and 1.05
activation of ligand-gated current [1, 5]: activated
normalized peak inward current, Avg [1, 7]: 0.94
normalized peak inward current, single recording [1, 7]: 1.00 and 0.98 and 0.94 and 0.78 and 0.93 and 0.97
normalized current (dose response), Avg ([1]; wildtype, ligand 0.03 mM): 0.017
normalized current (dose response), Avg ([1]; wildtype, ligand 0.10 mM): 0.35
normalized current (dose response), Avg ([1]; wildtype, ligand 0.30 mM): 0.95
normalized current (dose response), single recording ([1]; wildtype, ligand 0.30 mM): 1.00 and 0.97 and 0.95 and 0.77 and 0.99
normalized current (dose response), Avg ([1]; wildtype, ligand 1.00 mM): 1.00
normalized current (dose response), single recording ([1]; wildtype, ligand 1.00 mM): 0.99 and 1.00 and 0.98
normalized current (dose response), Avg ([1]; wildtype, ligand […]): 0.63

Cc1onc(O)c1CC(N)C(=O)O (stereo not drawn) [AMPA, α-amino-3-hydroxy-5-methyl-4-isoxazolepropionic acid]
normalized peak inward current, Avg ([2]; agonist 1 mM): 0.00676
normalized peak inward current, Avg ([3]; agonist 1 mM): 0.36
normalized peak inward current, single recording ([3]; agonist 1 mM): 0.33 and 0.26 and 0.30 and 0.41 and 0.44 and 0.43
sensitivity to agonist ([3]; m3 variant, 1 mM): moderate responses; also recorded: sensitive
peak amplitude relative to current elicited by 1 mM glutamate ([3]; m3 variant, 1 mM AMPA, slow desensitizing currents): roughly 36%
normalized peak inward current, Avg ([1]; agonist 1 mM): 0.00463
sensitivity to agonist ([1]; wildtype): insensitivity; also recorded: not sensitive

CN[C@H](CC(=O)O)C(=O)O [NMDA, N-methyl-D-aspartate]
normalized peak inward current, Avg ([2]; agonist 1 mM): 0.0107
normalized peak inward current, Avg ([3]; agonist 1 mM): 0.00471
normalized peak inward current, Avg ([1]; agonist 1 mM): 0.00229
sensitivity to agonist ([1]; wildtype): insensitivity; also recorded: not sensitive

CSCC[C@H](N)C(=O)O [methionine]
activation of ligand-gated current [1]: no responses

N[C@H](CO)C(=O)O [D-serine]
normalized peak inward current, Avg [2, 6]: 0.06
normalized peak inward current, single recording [2, 6]: 0.0548 and 0.0529 and 0.07 and 0.06 and 0.05
normalized peak inward current, Avg [3, 6]: 0.19
normalized peak inward current, Avg [4]: 0.76
normalized peak inward current, single recording [4]: 0.75 and 0.83 and 0.85 and 0.77 and 0.60
activation of ligand-gated current [1, 5]: activated
normalized peak inward current, Avg [1, 7]: 0.95
normalized peak inward current, single recording [1, 7]: 0.93 and 1.00 and 0.86 and 0.89
normalized current (dose response), Avg ([1]; wildtype, ligand 0.03 mM): 0.0178
normalized current (dose response), Avg ([1]; wildtype, ligand 0.10 mM): 0.20
normalized current (dose response), Avg ([1]; wildtype, ligand 0.30 mM): 0.78
normalized current (dose response), single recording ([1]; wildtype, ligand 0.30 mM): 0.63 and 0.81 and 0.90 and 0.84 and 0.69 and 0.70
normalized current (dose response), Avg ([1]; wildtype, ligand 1.00 mM): 0.97
normalized current (dose response), single recording ([1]; wildtype, ligand 1.00 mM): 1.00 and 0.99 and 0.87 and 0.90
EC50 ([1]; wildtype, monophasic dose-response fit of normalized whole-cell current): 190 ± 40 µM

C[C@H](N)C(=O)O [alanine, L-alanine]
normalized peak inward current, Avg [2, 6]: 0.36
normalized peak inward current, single recording [2, 6]: 0.33 and 0.37 and 0.40 and 0.41 and 0.31
normalized peak inward current, Avg [3, 6]: 0.0342
normalized peak inward current, Avg [4]: 1.12
normalized peak inward current, single recording [4]: 1.10 and 1.06 and 1.08 and 1.13 and 1.23
normalized current (dose response), Avg [1]: 0.80
normalized current (dose response), single recording [1]: 0.66 and 0.73 and 0.79 and 0.89 and 0.75 and 0.91 and 0.87 and 0.80
activation of ligand-gated current [1, 5]: activated
normalized peak inward current, Avg [1, 7]: 0.89
normalized peak inward current, single recording [1, 7]: 0.85 and 0.96 and 0.83 and 1.00 and 0.82
normalized current (dose response), Avg ([1]; wildtype, ligand 0.01 mM): 0.0244
normalized current (dose response), Avg ([1]; wildtype, ligand 0.03 mM): 0.28
normalized current (dose response), Avg ([1]; wildtype, ligand 0.30 mM): 1.00
normalized current (dose response), single recording ([1]; wildtype, ligand 0.30 mM): 1.00
normalized current (dose response), Avg ([1]; wildtype, ligand […]): 0.60

C=C(C)[C@H]1CN[C@H](C(=O)O)[C@H]1CC(=O)O [kainate]
normalized peak inward current, Avg ([2]; agonist 1 mM): 0.00537
normalized peak inward current, Avg ([3]; agonist 1 mM): 0.00374
normalized peak inward current, Avg ([1]; agonist 1 mM): 0.00265
sensitivity to agonist ([1]; wildtype): insensitivity; also recorded: not sensitive

N[C@@H](Cn1oc(=O)[nH]c1=O)C(=O)O [quisqualate]
normalized peak inward current, Avg ([2]; agonist 1 mM): 0.00939
normalized peak inward current, Avg ([3]; agonist 1 mM): 0.01
normalized peak inward current, Avg ([1]; agonist 1 mM): 0.00248
sensitivity to agonist ([1]; wildtype): not sensitive
